Measured values: patent publication US20090099237A1, “Methods of treating inflammatory diseases” (Roche Palo Alto LLC, priority 2007, published 2009)

Assays:
Assay in all cases: KinomeScan kinase profiling
Type in all cases: binding
Conditions in all cases: 10 μM
CSNK1E = biological target: T1, CSNK1E (Homo sapiens, UniProt P49674)
T1 construct: purchased Ambit Biosciences (San Diego, Calif.)

DAPK2 = biological target: T2, DAPK2 (Homo sapiens, UniProt Q9UIK4)
T2 construct: purchased Ambit Biosciences (San Diego, Calif.)

JNK2 = biological target: T3, JNK2 (Homo sapiens, UniProt P45984)
T3 construct: purchased Ambit Biosciences
T3 sequence (P45984 whole entry): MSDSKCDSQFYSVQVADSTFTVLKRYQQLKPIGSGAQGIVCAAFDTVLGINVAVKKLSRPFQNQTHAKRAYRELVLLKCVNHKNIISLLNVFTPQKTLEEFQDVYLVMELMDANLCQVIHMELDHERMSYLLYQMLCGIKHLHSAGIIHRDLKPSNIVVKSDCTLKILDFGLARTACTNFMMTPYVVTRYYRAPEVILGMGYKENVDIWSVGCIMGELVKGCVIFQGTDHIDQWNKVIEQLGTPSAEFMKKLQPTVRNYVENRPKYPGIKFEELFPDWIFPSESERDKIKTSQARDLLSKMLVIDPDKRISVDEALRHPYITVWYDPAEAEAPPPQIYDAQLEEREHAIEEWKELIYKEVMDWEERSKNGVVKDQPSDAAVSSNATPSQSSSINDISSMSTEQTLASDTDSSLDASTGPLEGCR

LCK = biological target: T4, LCK (Homo sapiens, UniProt P06239)
T4 construct: purchased Ambit Biosciences

PHKG1 = PHKG1 (Homo sapiens, UniProt Q16816)
AKT1 = biological target: T5, AKT1 (Homo sapiens, UniProt P31749)
T5 construct: purchased Ambit Biosciences
Excerpt: (§1) The selectivity of a given CK1α, CK1α-CK1δ, CK1α-CK1ε or CK1α-CK1δ-CK1ε inhibitor compound can be determined by testing the compound against a panel of known kinases. An example of such a kinase profiling technology is the “KinomeScan” from Ambit Biosciences in which compounds can be screened for their modulatory activities against more than 200 known kinases.

BIKE = biological target: T6, BIKE (Homo sapiens, UniProt Q9NSY1)
T6 construct: purchased Ambit Biosciences
Excerpt: as §1

CAMK1D = biological target: T7, CAMK1D (Homo sapiens, UniProt Q8IU85)
T7 construct: purchased Ambit Biosciences
Excerpt: as §1

CAMK1G = biological target: T8, CAMK1G (Homo sapiens, UniProt Q96NX5)
T8 construct: purchased Ambit Biosciences
Excerpt: as §1

CAMK2A = biological target: T9, CAMK2A (Homo sapiens, UniProt Q9UQM7)
T9 construct: purchased Ambit Biosciences
Excerpt: as §1

CAMK2B = biological target: T10, CAMK2B (Homo sapiens, UniProt Q13554)
T10 construct: purchased Ambit Biosciences
Excerpt: as §1

CAMK2G = biological target: T11, CAMK2G (Homo sapiens, UniProt Q13555)
T11 construct: purchased Ambit Biosciences
Excerpt: as §1

CAMKK2 = biological target: T12, CAMKK2 (Homo sapiens, UniProt Q96RR4)
T12 construct: purchased Ambit Biosciences (San Diego, Calif.)
T12 sequence (Q96RR4 whole entry): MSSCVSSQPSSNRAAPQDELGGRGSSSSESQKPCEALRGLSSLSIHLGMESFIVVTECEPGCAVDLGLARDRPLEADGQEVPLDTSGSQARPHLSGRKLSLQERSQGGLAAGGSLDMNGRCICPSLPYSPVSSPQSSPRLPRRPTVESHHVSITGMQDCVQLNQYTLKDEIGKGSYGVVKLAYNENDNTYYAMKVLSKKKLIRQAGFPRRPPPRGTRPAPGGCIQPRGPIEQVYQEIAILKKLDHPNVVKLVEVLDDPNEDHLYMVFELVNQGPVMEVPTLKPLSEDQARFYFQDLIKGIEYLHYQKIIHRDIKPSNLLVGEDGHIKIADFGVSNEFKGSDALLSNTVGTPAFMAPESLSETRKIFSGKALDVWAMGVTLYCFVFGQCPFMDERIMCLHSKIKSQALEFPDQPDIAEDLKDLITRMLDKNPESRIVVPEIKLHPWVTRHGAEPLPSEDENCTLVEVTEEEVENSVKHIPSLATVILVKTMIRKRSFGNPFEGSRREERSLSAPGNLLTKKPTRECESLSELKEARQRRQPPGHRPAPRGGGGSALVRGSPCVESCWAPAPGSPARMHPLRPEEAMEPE
Excerpt: as §1

CLK3 = biological target: T13, CLK3 (Homo sapiens, UniProt P49761)
T13 construct: purchased Ambit Biosciences (San Diego, Calif.)
Excerpt: as §1

CSK = biological target: T14, CSK (Homo sapiens, UniProt P41240)
T14 construct: purchased Ambit Biosciences (San Diego, Calif.)
Excerpt: as §1

CSNK2A1 = biological target: T15, CSNK2A1 (Homo sapiens, UniProt P68400)
T15 construct: purchased Ambit Biosciences (San Diego, Calif.)
Excerpt: as §1

EGFR = biological target: T16, EGFR (Homo sapiens, UniProt P00533)
T16 construct: purchased Ambit Biosciences (San Diego, Calif.)
Excerpt: as §1

EPHA5 = biological target: T17, EPHA5 (Homo sapiens, UniProt P54756)
T17 construct: purchased Ambit Biosciences (San Diego, Calif.)
Excerpt: as §1

EPHA6 = biological target: T18, EPHA6 (Homo sapiens, UniProt Q9UF33)
T18 construct: purchased Ambit Biosciences (San Diego, Calif.)
Excerpt: as §1

ERK2 = biological target: T19, ERK2 (Homo sapiens, UniProt P28482)
T19 construct: purchased Ambit Biosciences
T19 sequence (P28482 whole entry): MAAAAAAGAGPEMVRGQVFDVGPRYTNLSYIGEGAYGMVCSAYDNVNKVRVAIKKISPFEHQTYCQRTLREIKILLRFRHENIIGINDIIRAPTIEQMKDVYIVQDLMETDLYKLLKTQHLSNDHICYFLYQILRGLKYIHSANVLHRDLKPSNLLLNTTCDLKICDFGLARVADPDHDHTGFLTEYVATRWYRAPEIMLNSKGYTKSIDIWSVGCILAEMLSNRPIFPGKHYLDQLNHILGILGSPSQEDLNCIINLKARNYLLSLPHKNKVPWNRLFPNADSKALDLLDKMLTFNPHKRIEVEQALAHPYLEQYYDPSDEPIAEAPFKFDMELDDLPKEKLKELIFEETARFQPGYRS
Excerpt: as §1

FER = biological target: T20, FER (Homo sapiens, UniProt P16591)
T20 construct: purchased Ambit Biosciences
Excerpt: as §1

FGFR1 = biological target: T21, FGFR1 (Homo sapiens, UniProt P11362)
T21 construct: purchased Ambit Biosciences
Excerpt: as §1

IGF1R = biological target: T22, IGF1R (Homo sapiens, UniProt P08069)
T22 construct: purchased Ambit Biosciences
Excerpt: as §1

JNK1 = biological target: T23, JNK1 (Homo sapiens, UniProt P45983)
T23 construct: purchased Ambit Biosciences
Excerpt: as §1

MAP4K5 = MAP4K5 (Homo sapiens, UniProt Q9Y4K4)
Chain of MAP4K5 (Q9Y4K4 whole entry): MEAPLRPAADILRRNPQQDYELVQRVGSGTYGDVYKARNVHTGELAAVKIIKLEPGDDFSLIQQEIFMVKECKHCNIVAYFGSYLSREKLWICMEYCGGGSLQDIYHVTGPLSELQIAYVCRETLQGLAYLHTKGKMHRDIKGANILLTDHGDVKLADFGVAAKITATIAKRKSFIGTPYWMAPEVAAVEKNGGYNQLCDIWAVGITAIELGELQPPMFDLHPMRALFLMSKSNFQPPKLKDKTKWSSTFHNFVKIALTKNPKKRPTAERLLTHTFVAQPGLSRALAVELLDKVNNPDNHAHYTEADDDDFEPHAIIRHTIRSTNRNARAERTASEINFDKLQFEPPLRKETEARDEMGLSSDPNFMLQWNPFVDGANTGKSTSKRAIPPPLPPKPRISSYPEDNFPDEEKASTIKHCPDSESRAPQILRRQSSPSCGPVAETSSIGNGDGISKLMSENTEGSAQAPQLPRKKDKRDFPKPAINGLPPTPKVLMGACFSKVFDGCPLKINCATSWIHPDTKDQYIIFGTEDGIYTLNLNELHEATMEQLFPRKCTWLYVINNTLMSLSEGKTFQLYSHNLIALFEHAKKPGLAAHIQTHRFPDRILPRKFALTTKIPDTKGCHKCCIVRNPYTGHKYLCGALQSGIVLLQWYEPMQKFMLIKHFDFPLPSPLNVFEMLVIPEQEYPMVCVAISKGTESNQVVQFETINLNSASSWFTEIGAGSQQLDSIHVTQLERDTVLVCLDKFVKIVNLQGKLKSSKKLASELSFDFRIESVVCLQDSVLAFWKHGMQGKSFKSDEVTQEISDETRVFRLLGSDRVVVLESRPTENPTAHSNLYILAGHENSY
Excerpt: as §1

MKNK2 = MKNK2 (Homo sapiens, UniProt Q9HBH9)
Chain of MKNK2 (Q9HBH9 whole entry): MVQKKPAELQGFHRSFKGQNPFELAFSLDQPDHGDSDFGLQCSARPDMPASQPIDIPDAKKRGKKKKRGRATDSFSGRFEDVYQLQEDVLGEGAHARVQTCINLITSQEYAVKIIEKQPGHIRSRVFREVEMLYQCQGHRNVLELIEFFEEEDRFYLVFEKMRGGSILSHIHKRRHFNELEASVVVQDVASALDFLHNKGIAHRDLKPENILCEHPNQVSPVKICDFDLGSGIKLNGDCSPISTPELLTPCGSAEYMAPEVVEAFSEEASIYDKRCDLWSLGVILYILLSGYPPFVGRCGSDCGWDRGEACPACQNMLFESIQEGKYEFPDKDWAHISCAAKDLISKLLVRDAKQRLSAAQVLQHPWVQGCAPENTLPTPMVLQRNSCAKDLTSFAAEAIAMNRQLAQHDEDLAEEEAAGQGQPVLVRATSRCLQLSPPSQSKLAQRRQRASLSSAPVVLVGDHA
Excerpt: as §1

NEK2 = NEK2 (Homo sapiens, UniProt P51955)
Excerpt: as §1

PAK1 = PAK1 (Homo sapiens, UniProt Q13153)
Excerpt: as §1

PAK7/PAK5 = PAK7/PAK5 (Homo sapiens, UniProt Q9P286)
Excerpt: as §1

PDPK1 = PDPK1 (Homo sapiens, UniProt O15530)
Chain of PDPK1 (O15530 whole entry): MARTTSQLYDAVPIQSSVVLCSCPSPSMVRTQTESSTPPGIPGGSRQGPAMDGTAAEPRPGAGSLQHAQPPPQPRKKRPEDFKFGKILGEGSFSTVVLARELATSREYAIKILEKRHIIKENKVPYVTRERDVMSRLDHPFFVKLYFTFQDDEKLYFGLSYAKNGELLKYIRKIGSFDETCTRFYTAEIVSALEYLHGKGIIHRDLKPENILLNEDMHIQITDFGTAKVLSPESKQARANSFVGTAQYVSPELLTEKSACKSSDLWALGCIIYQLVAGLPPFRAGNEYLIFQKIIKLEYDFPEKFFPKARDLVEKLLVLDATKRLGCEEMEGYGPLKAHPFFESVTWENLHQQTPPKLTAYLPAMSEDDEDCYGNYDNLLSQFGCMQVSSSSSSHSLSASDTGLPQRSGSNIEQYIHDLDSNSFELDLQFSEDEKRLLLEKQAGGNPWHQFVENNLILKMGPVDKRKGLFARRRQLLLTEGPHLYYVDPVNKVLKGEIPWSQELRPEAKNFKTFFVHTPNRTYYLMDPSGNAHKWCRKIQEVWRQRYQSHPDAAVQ
Excerpt: as §1

PTK2 = biological target: T24, PTK2 (Homo sapiens, UniProt Q05397)
T24 construct: purchased Ambit Biosciences
T24 sequence (Q05397 whole entry): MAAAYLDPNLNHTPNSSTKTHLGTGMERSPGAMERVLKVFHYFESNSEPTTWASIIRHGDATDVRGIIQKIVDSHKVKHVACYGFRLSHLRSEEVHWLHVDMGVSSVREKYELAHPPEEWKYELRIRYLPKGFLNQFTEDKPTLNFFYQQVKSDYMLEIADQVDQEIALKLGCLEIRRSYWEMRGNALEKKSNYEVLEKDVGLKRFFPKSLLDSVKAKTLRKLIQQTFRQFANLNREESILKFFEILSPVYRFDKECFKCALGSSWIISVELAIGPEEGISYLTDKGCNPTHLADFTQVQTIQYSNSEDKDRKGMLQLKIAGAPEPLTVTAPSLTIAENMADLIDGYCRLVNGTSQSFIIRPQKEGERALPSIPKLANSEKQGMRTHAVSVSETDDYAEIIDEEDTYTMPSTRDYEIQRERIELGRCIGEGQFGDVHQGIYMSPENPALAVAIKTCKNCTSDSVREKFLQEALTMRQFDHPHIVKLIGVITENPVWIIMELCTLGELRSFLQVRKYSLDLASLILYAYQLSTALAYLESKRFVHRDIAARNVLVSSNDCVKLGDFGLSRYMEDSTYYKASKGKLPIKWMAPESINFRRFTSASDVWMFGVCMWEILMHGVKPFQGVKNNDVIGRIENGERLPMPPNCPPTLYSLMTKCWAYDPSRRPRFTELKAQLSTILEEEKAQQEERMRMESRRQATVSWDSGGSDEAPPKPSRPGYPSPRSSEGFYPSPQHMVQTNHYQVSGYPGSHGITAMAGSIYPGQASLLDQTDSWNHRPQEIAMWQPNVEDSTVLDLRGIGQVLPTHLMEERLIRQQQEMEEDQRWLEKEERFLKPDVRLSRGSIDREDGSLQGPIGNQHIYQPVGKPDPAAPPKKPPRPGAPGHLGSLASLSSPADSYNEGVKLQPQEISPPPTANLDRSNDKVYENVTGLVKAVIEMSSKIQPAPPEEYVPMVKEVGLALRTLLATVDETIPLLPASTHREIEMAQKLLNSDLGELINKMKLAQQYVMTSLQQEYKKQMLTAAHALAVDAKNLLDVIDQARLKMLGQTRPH
Excerpt: as §1

PTK2B = biological target: T25, PTK2B (Homo sapiens, UniProt Q14289)
T25 construct: purchased Ambit Biosciences
Excerpt: as §1

RPS6KA5 = biological target: T26, RPS6KA5 (Homo sapiens, UniProt O75582)
T26 construct: purchased Ambit Biosciences
Excerpt: as §1

SRC = biological target: T27, SRC (Homo sapiens, UniProt P12931)
T27 construct: purchased Ambit Biosciences
T27 sequence (P12931 whole entry): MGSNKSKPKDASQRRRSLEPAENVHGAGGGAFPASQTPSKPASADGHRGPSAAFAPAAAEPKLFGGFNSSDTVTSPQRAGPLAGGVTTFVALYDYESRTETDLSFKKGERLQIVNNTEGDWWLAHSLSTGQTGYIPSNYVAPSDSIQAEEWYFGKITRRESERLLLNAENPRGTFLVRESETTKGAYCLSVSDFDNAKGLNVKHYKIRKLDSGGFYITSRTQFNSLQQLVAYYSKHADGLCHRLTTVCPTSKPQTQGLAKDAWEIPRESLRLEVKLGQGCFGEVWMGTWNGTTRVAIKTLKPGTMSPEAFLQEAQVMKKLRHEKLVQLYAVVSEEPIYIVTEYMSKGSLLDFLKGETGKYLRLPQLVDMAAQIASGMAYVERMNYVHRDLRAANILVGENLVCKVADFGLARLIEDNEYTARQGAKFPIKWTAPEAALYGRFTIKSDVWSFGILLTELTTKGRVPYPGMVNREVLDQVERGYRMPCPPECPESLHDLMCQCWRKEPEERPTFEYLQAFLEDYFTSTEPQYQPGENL
Excerpt: as §1

STK11 = biological target: T28, STK11 (Homo sapiens, UniProt Q15831)
T28 construct: purchased Ambit Biosciences
Excerpt: as §1

STK17B = biological target: T29, STK17B (Homo sapiens, UniProt O94768)
T29 construct: purchased Ambit Biosciences
Excerpt: as §1

TXK = biological target: T30, TXK (Homo sapiens, UniProt P42681)
T30 construct: purchased Ambit Biosciences
Excerpt: as §1

p38-gamma = p38-gamma (Homo sapiens, UniProt P53778)
Excerpt: as §1

STK4 = biological target: T31, STK4 (Homo sapiens, UniProt Q13043)
T31 construct: purchased Ambit Biosciences

Compound	% Binding (CSNK1E) [%]	% Binding (DAPK2) [%]	% Binding (JNK2) [%]	% Binding (LCK) [%]	% Binding (PHKG1) [%]	% Binding (AKT1) [%]	% Binding (BIKE) [%]	% Binding (CAMK1D) [%]	% Binding (CAMK1G) [%]	% Binding (CAMK2A) [%]	% Binding (CAMK2B) [%]	% Binding (CAMK2G) [%]	% Binding (CAMKK2) [%]	% Binding (CLK3) [%]	% Binding (CSK) [%]	% Binding (CSNK2A1) [%]	% Binding (EGFR) [%]	% Binding (EPHA5) [%]	% Binding (EPHA6) [%]	% Binding (ERK2) [%]	also measured
NC(=O)c1cc(-c2ccncc2)c[nH]1 [Compound A, 4-Pyridin-4-yl-1H-pyrrole-2-carboxylic acid amide]	94	<50	<50	<50	<50	<50	<50	<50	<50	<50	<50	<50	<50	<50	<50	<50	<50	<50	<50	<50	% Binding (FER): <50%; % Binding (FGFR1): <50%; % Binding (IGF1R): <50%; % Binding (JNK1): <50%; % Binding (MAP4K5): <50%; % Binding (MKNK2): <50%; % Binding (NEK2): <50%; % Binding (PAK1): <50%; % Binding (PAK7/PAK5): <50%; % Binding (PDPK1): <50%; % Binding (PTK2): <50%; % Binding (PTK2B): <50%; % Binding (RPS6KA5): <50%; % Binding (SRC): <50%; % Binding (STK11): <50%; % Binding (STK17B): 96%; % Binding (TXK): <50%; % Binding (p38-gamma): <50%; % Binding (STK4): <50%
COc1cc(OC)c(C=C2C(O)=Nc3ccccc32)c(OC)c1 [IC261, 3-[(2,4,6-trimethoxyphenyl)methylidenyl]-indolin-2-one]	100	<50	<50	<50	<50	<50	<50	<50	<50	<50	<50	<50	<50	<50	<50	<50	<50	<50	<50	<50	% Binding (FER): <50%; % Binding (FGFR1): <50%; % Binding (IGF1R): <50%; % Binding (JNK1): <50%; % Binding (MAP4K5): <50%; % Binding (MKNK2): <50%; % Binding (NEK2): <50%; % Binding (PAK1): <50%; % Binding (PAK7/PAK5): <50%; % Binding (PDPK1): <50%; % Binding (PTK2): <50%; % Binding (PTK2B): <50%; % Binding (RPS6KA5): <50%; % Binding (SRC): <50%; % Binding (STK11): <50%; % Binding (STK17B): <50%; % Binding (TXK): <50%; % Binding (p38-gamma): <50%; % Binding (STK4): <50%
